Data from patent US20250144067A1, “PERSONALIZED STARVATION THERAPY FOR CANCER” (Faeth Therapeutics, Inc., priority 2021, published 2025).
Where a name gives a salt, the structure may show the parent alone. Read-outs that look alike come from different tables or passages of the source.

Tests used:
[1] = tested on: NCI-H292 lung cancer cells; experiment: FDA drug screening, complete media vs cholesterol-free media without statin (TABLE 1); assay type: cell-based, human
[2] = tested on: NCI-H292 lung cancer cells; experiment: FDA drug screening, complete media vs cholesterol-free media with simvastatin (TABLE 2); assay type: cell-based, human
[3] = NCI-H292 cells, cholesterol-free media without statin
[4] = complete vs cholesterol-free media, […]
[5] = NCI-H292 cells, FDA drug library screen, cholesterol-free media with simvastatin 0.04 μM
[6] = NCI-H292 cells, FDA drug library screen, complete media
[7] = NCI-H292 cells, cholesterol-free media without statin, FDA drug library screen
[8] = NCI-H292 cells, complete media, FDA drug library screen
[9] = complete vs cholesterol-free media, >0 enhanced anti-cancer activity, about 0 neutral, <0 antagonist
[10] = NCI-H292 cells, drug in cholesterol-free media with simvastatin 0.04 μM
[11] = complete media vs cholesterol-free media + simvastatin (0.04 μM), >0 enhanced anti-cancer activity, about 0 neutral, <0 antagonist
[12] = Complete minus Cholesterol-free, >0 enhanced anti-cancer activity, about 0 neutral, <0 antagonist
[13] = complete media minus cholesterol-free media + simvastatin, >0 enhanced anti-cancer activity, about 0 neutral, <0 antagonist
[14] = NCI-H292 cells, cholesterol-free media with simvastatin 0.04 μM, cell growth value in FDA drug screen
[15] = NCI-H292 cells, complete media, cell growth value in FDA drug screen
[16] = NCI-H292 cells, FDA library drug in cholesterol-free media with simvastatin 0.04 μM
[17] = NCI-H292 cells, FDA library drug in complete media
[18] = complete vs cholesterol-free media, greater than 0 enhanced anti-cancer activity, about 0 neutral, below 0 antagonists
[19] = Complete minus Cholesterol-free, greater than 0 enhanced anti-cancer activity, about 0 neutral, below 0 antagonist
[20] = NCI-H292 cells, FDA drug library screen, cholesterol-free media without statin
[21] = NCI-H292 cells, cholesterol-free media with simvastatin 0.04 μM, FDA drug library screen (TABLE 2)
[22] = NCI-H292 cells, complete media, FDA drug library screen (TABLE 2)
[23] = complete media minus cholesterol-free media + simvastatin (0.04 μM), >0 enhanced anti-cancer activity, about 0 neutral, <0 antagonist

Compound | Cholesterol-free [1, 3] | Complete ([1]; NCI-H292 cells, complete media) | Cholesterol-free [1, 7] | Complete [1, 8] | Difference [1, 12] | Cholesterol-free media + simvastatin (0.04 μM) [2, 21] | Complete Media [2, 22] | Difference [2, 23] | other results
Clc1ccc2c(N3CCN(CCCN4CCN(c5ccnc6cc(Cl)ccc56)CC4)CC3)ccnc2c1 | 1.226 | 0.8255 | – | – | – | – | – | – | Difference [1, 4]: −0.40; Cholesterol-free media + simvastatin (0.04 μM) [2, 5]: 0.9008; Complete Media [2, 6]: 1.047; Difference ([2]; complete media minus cholesterol-free media + simvastatin, […]): 0.15
O=C(Nc1cnn2ccc(N3CCC[C@@H]3c3cc(F)ccc3F)nc12)N1CC[C@H](O)C1 [Larotrectinib sulfate] | – | – | 1.525 | 1.739 | – | – | – | – | Difference [1, 9]: 0.21; Cholesterol-free media + simvastatin (0.04 μM) [2, 10]: 1.922; Complete Media ([2]; NCI-H292 cells, drug in complete media): 1.699; Difference [2, 11]: −0.22
Quetiapine (hemifumarate) | 0.9339 | 0.7112 | – | – | −0.22 | – | – | – | Cholesterol-free media + simvastatin (0.04 μM) [2, 5]: 0.6141; Complete Media [2, 6]: 0.8428; Difference [2, 13]: 0.23
CCOC(=O)[C@H](CCc1ccccc1)N[C@@H](C)C(=O)N(CC(=O)O)C1Cc2ccccc2C1 [Delapril (hydrochloride)] | 1.222 | 0.9182 | – | – | −0.30 | – | – | – | Cholesterol-free media + simvastatin (0.04 μM) [2, 14]: 0.7815; Complete Media [2, 15]: 0.8772; Difference [2, 13]: 0.10
COc1ccccc1O [Guaiacol] | – | – | 1.281 | 1.265 | −0.02 | – | – | – | Cholesterol-free media + simvastatin (0.04 μM) [2, 16]: 2.295; Complete Media [2, 17]: 1.473; Difference [2, 11]: −0.82
CN1C(=O)C[C@@H](C(=O)N[C@@H](Cc2c[nH]cn2)C(=O)N2CCC[C@H]2C(N)=O)NC1=O [Taltirelin] | 1.305 | 0.871 | – | – | – | – | – | – | Difference [1, 4]: −0.43; Cholesterol-free media + simvastatin (0.04 μM) [2, 10]: 1.39; Difference ([2]; complete media vs cholesterol-free media + simvastatin (0.04 μM), […]): −0.24
Cc1ccc(-c2cc(C(F)(F)F)nn2-c2ccc(S(N)(=O)=O)cc2)cc1 [Celecoxib] | 1.362 | 0.9472 | – | – | – | – | – | – | Difference [1, 18]: −0.42; Cholesterol-free media + simvastatin (0.04 μM) [2, 14]: 1.271; Complete Media [2, 15]: 1.302; Difference [2, 13]: 0.03
Lapatinib (ditosylate) | – | – | – | – | – | 0.4889 | 0.4758 | −0.01 | Difference [1, 19]: −0.15; Cholesterol-free [1, 20]: 0.4354; Complete [1, 6]: 0.2847
Fenticonazole (Nitrate) | – | – | 0.9899 | – | – | – | – | – | Difference [1, 9]: 0.08; Cholesterol-free media + simvastatin (0.04 μM) [2, 5]: 0.6564; Complete Media [2, 6]: 1.167; Difference [2, 13]: 0.51
Cc1[nH]c2ccccc2c1CCNCc1ccc(/C=C/C(=O)NO)cc1 [Panobinostat] | – | – | −0.004474 | −0.02997 | −0.03 | 0.008426 | −0.004725 | −0.01 | –
O=C1CN(/N=C/C=C/c2ccc([N+](=O)[O-])o2)C(=O)N1 [Furagin] | 1.216 | 0.9861 | – | – | −0.23 | 1.137 | 1.079 | −0.06 | –
CN1[C@@H]2CC[C@H]1C[C@@H](OC(=O)C(CO)c1ccccc1)C2 (some centres unmarked) [Atropine (sulfate monohydrate)] | – | – | – | – | – | – | – | – | Complete [1]: 1.139; Difference [1]: 0.08; Cholesterol-free media + simvastatin (0.04 μM) [2]: 0.6465; Complete Media [2]: 0.6938; Difference [2]: 0.05
Cc1cc(C)c(NC(=O)CN(CC(=O)O)CC(=O)O)c(C)c1Br [Mebrofenin] | – | – | – | – | – | – | – | – | Difference [1, 19]: −0.13; Cholesterol-free [1, 20]: 1.088; Complete [1, 6]: 0.9614; Cholesterol-free media + simvastatin (0.04 μM) [2, 16]: 1.2; Complete Media [2, 17]: 0.8726; Difference [2, 11]: −0.33
CO[C@H]1C(=O)[C@]2(C)[C@@H](OC)C[C@H]3OC[C@@]3(OC(C)=O)[C@H]2[C@H](OC(=O)c2ccccc2)[C@]2(O)C[C@H](OC(=O)[C@H](O)[C@@H](NC(=O)OC(C)(C)C)c3ccccc3)C(C)=C1C2(C)C [Cabazitaxel] | – | – | 0.2044 | 0.198 | −0.01 | 0.364 | 0.3065 | −0.06 | –
O=c1c(O[C@@H]2O[C@H](CO)[C@H](O)[C@H](O)[C@H]2O)c(-c2ccc(O)c(O)c2)oc2cc(O)cc(O)c12 [Hyperoside] | – | – | 0.9192 | 0.8906 | −0.03 | – | – | – | Cholesterol-free media + simvastatin (0.04 μM) [2, 5]: 0.9665; Complete Media [2, 6]: 0.8144; Difference [2, 11]: −0.15
CC(C)NCC(O)COc1cccc2ccccc12 (centres unmarked) [Propranolol (hydrochloride)] | 1.016 | 0.5683 | – | – | – | 0.8722 | 0.8715 | 0.00 | Difference [1, 18]: −0.45
CO[C@H]1C[C@@H]2CC[C@@H](C)[C@@](O)(O2)C(=O)C(=O)N2CCCC[C@H]2C(=O)O[C@H]([C@H](C)C[C@@H]2CC[C@@H](OC(=O)C(C)(CO)CO)[C@H](OC)C2)CC(=O)[C@H](C)/C=C(\C)[C@@H](O)[C@@H](OC)C(=O)[C@H](C)C[C@H](C)/C=C/C=C/C=C/1C [Temsirolimus] | – | – | 0.4176 | 0.3544 | −0.06 | – | – | – | Cholesterol-free media + simvastatin (0.04 μM) [2, 14]: 0.4472; Complete Media [2, 15]: 0.5571; Difference [2, 13]: 0.11
Alarelin (Acetate) | – | – | – | – | – | 0.8515 | 0.85 | – | Difference ([1]; Complete minus Cholesterol-free, […]): −0.71; Cholesterol-free ([1]; NCI-H292 cells in cholesterol-free media without statin): 2.133; Complete ([1]; NCI-H292 cells in complete media): 1.426; Difference ([2]; complete media minus cholesterol-free media + simvastatin (0.04 μM), […]): 0.00
NS(=O)(=O)c1cc2c(cc1Cl)N=C(CSCc1ccccc1)NS2(=O)=O [Benzthiazide] | – | – | – | – | – | – | – | – | Difference [1, 19]: −0.08; Cholesterol-free [1, 20]: 0.9561; Complete [1, 6]: 0.8751; Cholesterol-free media + simvastatin (0.04 μM) [2, 14]: 1.107; Difference [2, 13]: 0.04
C#CCN(C)Cc1ccccc1 [Pargyline (hydrochloride)] | 1.204 | 0.7875 | – | – | – | 0.8767 | 0.8243 | −0.05 | Difference [1, 18]: −0.42
CCN(CC)CCOC(=O)C(Cc1cccc2ccccc12)CC1CCCO1.O=C(O)C(=O)O (centres unmarked) [Naftidrofuryl (oxalate)] | – | – | 1.015 | 0.9733 | −0.04 | 1.139 | 1.076 | −0.06 | –
O=c1[nH]ccc2c(S(=O)(=O)N3CCCNCC3)cccc12 [Hydroxyfasudil (hydrochloride)] | – | – | – | – | – | – | – | – | Cholesterol-free [1]: 1.045; Complete [1]: 0.7884; Difference [1]: −0.26; Cholesterol-free media + simvastatin (0.04 μM) [2]: 0.8461; Complete Media [2]: 0.9788; Difference [2]: 0.13
OB1OCc2cc(F)ccc21 [Tavaborole] | – | – | 1.018 | 0.9789 | −0.04 | 1.181 | 1.117 | −0.06 | –
C/C=C(/C(=C/C)c1ccc(O)cc1)c1ccc(O)cc1 [Dienestrol] | – | – | 0.6505 | 1.078 | – | – | – | – | Difference [1, 9]: 0.43; Cholesterol-free media + simvastatin (0.04 μM) [2, 14]: 0.8618; Complete Media [2, 15]: 0.9909; Difference [2, 13]: 0.13
